The nature of data set [1]: Stability test in a 60° C. drying oven (impurity, content, XRPD). The following applies: for Content % / Total impurity %: 60° C. drying oven. Type of data set: physicochemical. Here is the method: The crystal form A of the fumarate of the compound of formula (I) prepared in Example 9 and the crystal form 1 of the maleate of the compound of formula (I) prepared in Example 2 were placed in a 60° C. drying oven for different days (0 days, 7 days, 21 days). Samples were collected and detected to investigate the stability of the crystal forms.
The amorphous form of the free base of the compound of formula (I) was subjected to the same stability study as above-mentioned.
The crystal form 2 of the maleate of the compound of formula (I) prepared in Example 3 was placed in a 60° C. drying oven, and samples were taken and tested for different days (0 days, 7 days, 14 days and 30 days) to investigate the stability of the crystal form.

A short description of data set [2]: Solubility test in PBS buffers of different pH, water and normal saline at room temperature. It is filed as physicochemical. As to conditions: for solubility: thermodynamic from solid. Here is the method: Weigh about 50 mg of the crystal form 1 of the maleate of the compound of formula (I) prepared in Example 2, which was added into different bottles. Then PBS buffers with different pH values were prepared. Each of them was added in batches with a small amount into each of the above bottles at room temperature till the crystal form in each bottle was just dissolved. The total amount of the solvent was recorded and the solubility was calculated.
The amorphous form of the free base of the compound of formula (I) was subjected to the same solubility study as above-mentioned.

Data set [3] is described as follows: Hygroscopicity test by dynamic moisture adsorption instrument (DVS). Type of data set: physicochemical. The following applies: for weight increasement due to moisture absorption: 25° C. As for the experimental part:
Experimental method: this test was carried out by a dynamic moisture adsorption instrument. Weigh 10 mg of a solid sample, which was placed on a balance. The humidity in the sample room was controlled through the program. The sample was placed under the same temperature and different humidity conditions for 7 days, then the quality change of the tested sample was measured with relative humidity. Detection procedure: the humidity change was 0%-95%-0%; the test temperature was 25° C.
The amorphous form of the free base of the compound of formula (I) was subjected to the same hygroscopicity study as above-mentioned. […] When the relative humidity is 95%, the weight increasement due to moisture absorption can reach 9.5%, and the sample after moisture absorption is not easy to desorb.

The test system of data set [4] is Acute myeloid leukemia cells MV-4-11. Description: Cell proliferation inhibition, CellTiter-Glo. Type of data set: cell-based. The following applies: MV-4-11 cells. As for the experimental part: Weigh 5.61 mg of the crystal form 1 of the maleate of the compound of formula (I) prepared in Example 2, which was dissolved it in 74.7 μL of DMSO.
Configure 1000× compound storage plate (or called 1000× storage medicine plate): the 100 mM compound storage solution was diluted with DMSO. The starting concentration was 10 mM and 9 concentration gradients (th concentration of the storage solution was 10 mM, 3 mM, 1 mM, 0.3 mM, 0.1 mM, 0.03 mM, 0.01 mM, 0.001 mM and 0.0001 mM respectively) were set. The compound storage plate was sealed with a sealing tape, and stored in a refrigerator at −20° C. for later use.
Acute myeloid leukemia cells MV-4-11 (purchased from ATCC) were selected and seaded into a 96-well plate (140 μL per well) at a density of 5000/well and cultured overnight in a incubator with 37° C., 5% CO2.
1000×storage medicine plates were taken out and melt at room temperature while avoiding light. Then prepare 15× intermediate medicine plates (78.8 μL of medium and 1.2 μL of medicine-containing DMSO storage solution), which were mixed well. 10 μL of the medicine-contained medium (15×) was added into the 96-well cell plates (the final concentration was 10 μM, 3 μM, 1 μM, 0.3 μM, 0.1 μM, 0.03 μM, 0.01 μM, 0.001 μM and 0.0001 μM, respectively, and the final concentration of DMSO was […]), which were gently patted to well-mixed, then put it in a incubator with 37° C., 5% CO2, and continued to incubate for 24 hours.
Then the CellTiter-Glo method was used to detect vitality of the cell under the conditions of each drug concentration, and the rate of cell proliferation inhibition under the corresponding conditions was calculated.
A general note: ATP-based viability assays read luminescence as a measure of living cells.

The nature of data set [5]: Stability test in a 60° C. drying oven (impurity, content, XRPD). It is filed as physicochemical. As to conditions: for Content % / Total impurity %: 60° C. drying oven, 21 days; for change in content or in the characteristic peaks of the XRPD pattern: after 21 days at high temperature (60° C.).
Data set [6] can be described thus: Hygroscopicity observation on the hydrochloride (Comparative Example 2). It is filed as physicochemical. As to conditions: solid in crystal form obtained with hydrochloric acid. As for the experimental part:
Similarly, by using the method described in Example 1 or Example 9, the according salt of the compound of formula (I) were prepared with the hydrochloric acid instead of the maleic acid or the fumaric acid.

Where [7] appears, read: amorphous form, 60° C., 7th and 14th day.

In brackets after ≈: the same amount, converted by molar mass. Structures can show the parent of a compound that is named as a salt. Where two headings read alike, the source gives them in different places.

As for `COC[C@@H](C)N[C@H]1CC[C@H](Nc2cc(-c3csc(NCC4(C#N)CCOCC4)n3)c(Cl)cn2)CC1` [crystal form 1 of the maleate of the compound of formula (I)], the Content % in data set [1] (0 day) is recorded as 99.91%; in data set [1] (7 days), 99.88%; in data set [5], 99.86%. The Total impurity % in data set [1] (0 day) worked out at 0.09%; in data set [1] (7 days), 0.12%; in data set [5] it was 0.14%. The “Solubility (S, mg/mL)” value in data set [2] (PBS pH 6.5, room temperature) was 45 mg/mL; in data set [2] (PBS pH 7.0, room temperature) it was 57 mg/mL; in data set [2] (PBS pH 7.5, room temperature), 62 mg/mL; in data set [2] (water, room temperature), 31 mg/mL. Also, in data set [3] (environment humidity RH=60%), the “hygroscopicity (in words)” value is “weak”. Besides, in data set [3] (environment humidity RH=60%), the “weight increasement due to moisture absorption” value (from here on “weight increasement due”) was “about 1%”. Also, the “effect on cell growth” value in data set [4] (concentration range 0.0001 μM to 0.01 μM) is “no significant changes in cell growth”; in data set [4] (concentration range 0.03 μM to 10 μM), “significant inhibitory effect”. The “change in content or in the characteristic peaks of the XRPD pattern” value in data set [5] is reported as “basically no change”.

Turning to `COC[C@@H](C)N[C@H]1CC[C@H](Nc2cc(-c3csc(NCC4(C#N)CCOCC4)n3)c(Cl)cn2)CC1` [listing 1 of 2 here], the “hygroscopicity (in words)” value in data set [6] is given as “very hygroscopic”.

For `COC[C@@H](C)N[C@H]1CC[C@H](Nc2cc(-c3csc(NCC4(C#N)CCOCC4)n3)c(Cl)cn2)CC1` [listing 2 of 2 here], the solubility in data set [2] (PBS buffer, pH 6, aqueous buffer, PBS 6.0, room temperature, read-out: Solubility (S, mg/mL)) is 41 mg/mL (≈ 79 mM); in data set [2] (PBS buffers of different pH, water and normal saline, aqueous buffer, PBS 6.0-7.5, water, normal saline, read-out: solubility in each of the above-mentioned solvents (summary)), 30 to 60 mg/mL (≈ 57.8 to 116 mM); in data set [2] (normal saline, saline or isotonic, normal saline, room temperature, read-out: Solubility (S, mg/mL)) it was 50 mg/mL (≈ 96.3 mM). Moreover, in data set [4] (Homo sapiens, MV4-11, 24 hours incubation, CellTiter-Glo, read-out: absolute half inhibitory concentration (ABsIC50)), the IC50 was found to be 32 nM.

As for `COC[C@@H](C)N[C@H]1CC[C@H](Nc2cc(-c3csc(NCC4(C#N)CCOCC4)n3)c(Cl)cn2)CC1` [free base of the compound of formula (I), 4-(((4-(5-chloro-2-(((1R,4r)-4-(((R)-1-methoxypropyl-2-yl)amino)cyclohexyl)amino)pyridin-4-yl)thiazol-2-yl)amino)methyl)tetrahydro-2H-pyran-4-carbonitrile], the values for the Content % in data set [1] (0 day), in data set [1] (7 days) and in data set [1] (14 days) were 99.50%, 98.42% and 97.44%, respectively. The Total impurity % is listed as 0.50% in data set [1] (0 day), 1.58% in data set [1] (7 days) and 2.56% in data set [1] (14 days). Moreover, the “change in the character (appearance)” value in data set [1] (setting [7]) is “changes from a yellow solid to a hard gelatinous substance”. Besides, in data set [2] (PBS buffer, pH 7.2, aqueous buffer, PBS pH 7.2, room temperature, read-out: Solubility (S, mg/mL)), the solubility was ~10.1 mg/mL. The “Solubility (S, mg/mL)” value in data set [2] (PBS pH 6.5, room temperature) is “about 15.10 mg/mL”; in data set [2] (PBS pH 7.0, room temperature), “about 12.5 mg/mL”; in data set [2] (PBS pH 7.5, room temperature) it was “about 0.44 mg/mL”; in data set [2] (water, room temperature) it was “about 0.1 mg/mL”. Also, the “solubility compared with crystal form 1 of the maleate (in words)” value in data set [2] (same experiment conditions, amorphous free base) is “significant lower solubility”. The “hygroscopicity (in words)” value in data set [3] (environment humidity higher than 60%, amorphous form) is listed as “quite strong hygroscopicity”. Further, in data set [3] (relative humidity 95%), the “weight increasement due” value is 9.5%. In data set [5] (setting [7]), the “stability (in words)” value is listed as “poor stability”.

As to `COC[C@@H](C)N[C@H]1CC[C@H](Nc2cc(-c3csc(NCC4(C#N)CCOCC4)n3)c(Cl)cn2)CC1` [crystal form 2], the Content % in data set [1] (0 day) was 99.13%; in data set [1] (7 days) it was 98.56%; in data set [1] (14 days) it was 97.73%. For the same compound, the figures for the Total impurity % in data set [1] (0 day), in data set [1] (7 days) and in data set [1] (14 days) were 0.87%, 1.44% and 2.27%, respectively. The “characteristic peaks of the XRPD pattern” value in data set [5] (after 14 days at high temperature (60° C.)) is given as “basically unchanged”.

As to `COC[C@@H](C)N[C@H]1CC[C@H](Nc2cc(-c3csc(NCC4(C#N)CCOCC4)n3)c(Cl)cn2)CC1` [crystal form A of the fumarate of the compound of formula (I], in data set [1] (0 day), the Content % was 99.38% and the Total impurity % worked out at 0.62%. Moreover, in data set [1] (7 days), the Content % is 99.31% and the Total impurity % is 0.69%. In data set [3] (environment humidity RH=60%), the “hygroscopicity (in words)” value is “weak” and the “weight increasement due” value is “about 1%”. Besides, in data set [5], the Content % amounted to 99.22%, the Total impurity % is listed as 0.78% and the “change in content or in the characteristic peaks of the XRPD pattern” value is given as “basically no change”.

For the origin of these results see patent US12384774B2, “Polymorph of CDK9 inhibitor and preparation method for polymorph and use thereof” (GenFleet Therapeutics (Shanghai) Inc., priority 2019, dated 2025).
